{"source": "patent US20160201132A1", "about": "“GENE EXPRESSION BIOMARKERS OF LAQUINIMOD RESPONSIVENESS” (Teva Pharmaceutical Industries Ltd., priority 2013, published 2016)", "key": {"[1]": {"tested_on": "PAI-1 (Serpine 1)", "assay": "Western blot verification of PAI-1 (Serpine 1) protein in PBMC of LAQ-treated patients", "assay_type": "in vivo, human", "details": "four out of five patients, after 6 months of LAQ treatment", "description": "FIG. 6: Expression of PAI-1 (Serpine 1) in PBMCs of patients following treatment with LAQ. Protein samples were prepared from phenol/ethanol fractions of PBMCs derived from patients after 6 month of LAQ treatment (+) and compare to PBMCs samples of the same patients before treatment (−) (A). From each sample […] was separated on 10% SDS-PAGE. Blots were incubated with Rabbit a-PAI-1 (1:500) and mouse Tubulin (1:500). The signal intensities of a protein band and its surrounding background were scanned for each protein and quantified by using Quantity One 4.6.9 software. The resultant background-subtracted values of protein expression were normalized to those of Tubulin and then plotted as the relative protein levels for each patient with or without LAQ treatment (B).\nFor verification of key genes on protein level Western blot analysis was performed. Supernatant was collected and protein concentration was determined using a Bradford assay (Pierce, Rockford, Ill., USA) according the manufacturer's guidelines. Equal amounts of protein were suspended in sample buffer and boiled for 5 min. Cell lysates were resolved on 10% SDS-polyacrylamide gel electrophoresis (PAGE). […] The blots were then washed three times with TBST buffer and analyzed by standard chemiluminescence (Supersignal Kit, Pierce, Rockford, Ill., USA) according to the company's protocol."}, "[2]": {"tested_on": "TGFB1", "assay": "Western blot verification of TGFB1 (TGFb) protein in PBMC of LAQ-treated RRMS patients", "assay_type": "in vivo, human", "description": "FIG. 5: Expression of TGFB1 in PBMCs of RRMS patients following treatment with LAQ. Protein samples ([…]) were prepared from phenol/ethanol fractions of PBMCs derived from patients after 6 month of LAQ treatment (+) and compared to PBMCs samples of the same patients before treatment (−) (FIGS. 5A and 5C). From each sample 30 ug was separated on 10% SDS-PAGE. Blots were incubated with Rabbit a-TGFb1 (1:250) and mouse Tubulin (1:500). The signal intensities of a protein band and its surrounding background were scanned for each protein and quantified by using Quantity One 4.6.9 software (Bio-Rad Laboratories, Hercules, Calif.). […] The signal intensity of a protein bands were quantified by Quantity One 4.6.9 software. The resultant background-subtracted values of protein expression were normalized to those of Tubulin and then calculated as the relative protein levels for each patient before or after LAQ treatment. The blot images in A, B and C are representative of two out of five analyzed patients showing down regulation of TGFb, ITGB1 and CXCR1, respectively as also quantified by densitometry of bands analyzed from five patients. […] Supernatant was collected and protein concentration was determined using a Bradford assay (Pierce, Rockford, Ill., USA) according the manufacturer's guidelines. […]"}, "[3]": {"tested_on": "ITGB1", "assay": "Western blot verification of ITGB1 protein in PBMC of LAQ-treated RRMS patients", "assay_type": "in vivo, human", "details": "six months of LAQ treatment vs baseline, n=5", "description": "(§1) FIG. 10: Expression of TGFb, ITGB1 and CXCR1 in RRMS patients treated with LAQ. Protein extracts were prepared from PBMCs samples derived from RRMS patients before treatment (black bars) and compared to PBMCs samples of the same patients after six months of LAQ treatment (white bars). The signal intensity of a protein bands were quantified by Quantity One 4.6.9 software. The resultant background-subtracted values of protein expression were normalized to those of Tubulin and then calculated as the relative protein levels for each patient before or after LAQ treatment. The blot images in A, B and C are representative of two out of five analyzed patients showing down regulation of TGFb, ITGB1 and CXCR1, respectively as also quantified by densitometry of bands analyzed from five patients. Data are presented as mean±SEM. Statistically significant differences are marked in graphs (n=5, paired one-tailed t-test). Protein fractions were purified from PBMC of 5 patients at baseline and after six months of LAQ treatment. Proteins were extracted from TRIZOL fractions and solubilized following the method reported by Hummon et al., 2007 (Hummon et al., 2007). […] Blots were analyzed by standard chemi-luminescence (Supersignal Kit, Pierce, Rockford, Ill., USA) and visualization was done by ChemiDoc™ XRS System (Bio-Rad)."}, "[4]": {"tested_on": "RRMS patients", "details": "cited from earlier work"}, "[5]": {"tested_on": "CXCR1", "assay": "Western blot verification of CXCR1 protein in PBMC of LAQ-treated RRMS patients", "assay_type": "in vivo, human", "details": "six months of LAQ treatment vs baseline, n=5", "description": "as §1"}}}
{"molecule": "CCN(C(=O)c1c(O)c2c(Cl)cccc2n(C)c1=O)c1ccccc1", "note": "[LAQ, 5-chloro-N-ethyl-4-hydroxy-1-methyl-2-oxo-N-phenyl-1,2-dihydroquinoline-3-carboxamide]", "values": [{"measurement": "reduced expression of PAI-1 protein (band intensities normalized against tubulin)", "setting": "[1]", "value": "30-50%"}, {"measurement": "down-regulation of TGFB1 protein level (band intensities normalized against Tubulin)", "setting": "[2]; four out of five patients, 6 months of LAQ treatment vs before treatment", "value": "20-50%"}, {"measurement": "TGFb protein suppressed by (quantification of bands intensities)", "setting": "[2]; six months of LAQ treatment vs baseline, n=5", "value": 69.0, "unit": "%"}, {"measurement": "down regulation of ITGB1 protein", "setting": "[3]", "value": 40, "unit": "%"}, {"measurement": "annualized relapse rate", "setting": "[4]; RRMS patients treated for 24 months", "value": "modestly decreased"}, {"measurement": "safety and tolerability profile", "setting": "[4]; two phase III trials (BRAVO, ALLEGRO)", "value": "favorable"}, {"measurement": "down regulation of CXCR1 protein", "setting": "[5]", "value": 24.7, "unit": "%"}]}
